Measurements published in PubChem BioAssay (NCI).
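Step 1: Grow cells in 96-well plates. Step 2: Expose to compound for 48 hours at 5 concentrations. Step 3: Interpolate endpoints linearly; if unreached, use highest concentration. Abbreviation: GI50, concentration required for 50% inhibition of growth. At the TGI there is no net growth.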

Experiments:
Assay in all cases: inhibition of tumour cell growth, NCI panel, 48 h
MALME-3M melanoma = test system: MALME-3M melanoma
TK-10 renal = test system: TK-10 renal
SNB-75 CNS = test system: SNB-75 CNS
IGROV1 ovarian = test system: IGROV1 ovarian
SF-295 CNS = test system: SF-295 CNS
MDA-MB-468 breast = test system: MDA-MB-468 breast
A549 NSCLC = test system: A549 NSCLC
U251 CNS = test system: U251 CNS
MCF7 breast = test system: MCF7 breast
HCT-15 colon = test system: HCT-15 colon
SK-MEL-5 melanoma = test system: SK-MEL-5 melanoma
M14 melanoma = test system: M14 melanoma
SF-268 CNS = test system: SF-268 CNS
OVCAR-4 ovarian = test system: OVCAR-4 ovarian
K-562 leukemia = test system: K-562 leukemia
LOX IMVI melanoma = test system: LOX IMVI melanoma
MOLT-4 leukemia = test system: MOLT-4 leukemia
RXF 393 renal = test system: RXF 393 renal
CCRF-CEM leukemia = test system: CCRF-CEM leukemia
EKVX NSCLC = test system: EKVX NSCLC
UACC-257 melanoma = test system: UACC-257 melanoma
SK-MEL-28 melanoma = test system: SK-MEL-28 melanoma
OVCAR-3 ovarian = test system: OVCAR-3 ovarian
HCT-116 colon = test system: HCT-116 colon
KM12 colon = test system: KM12 colon
SF-539 CNS = test system: SF-539 CNS
HL-60(TB) leukemia = test system: HL-60(TB) leukemia
NCI-H226 lung = test system: NCI-H226 lung
RPMI-8226 leukemia = test system: RPMI-8226 leukemia
ACHN renal = test system: ACHN renal
HOP-92 NSCLC = test system: HOP-92 NSCLC
HCC-2998 colon = test system: HCC-2998 colon
DU-145 prostate = test system: DU-145 prostate
SW-620 colon = test system: SW-620 colon
UACC-62 melanoma = test system: UACC-62 melanoma
SR leukemia = test system: SR leukemia
HOP-62 NSCLC = test system: HOP-62 NSCLC
NCI-H23 lung = test system: NCI-H23 lung
CAKI-1 renal = test system: CAKI-1 renal
UO-31 renal = test system: UO-31 renal
COLO 205 colon = test system: COLO 205 colon
SK-OV-3 ovarian = test system: SK-OV-3 ovarian
SN12C renal = test system: SN12C renal
PC-3 prostate = test system: PC-3 prostate
786-0 renal = test system: 786-0 renal
T-47D breast = test system: T-47D breast
SK-MEL-2 melanoma = test system: SK-MEL-2 melanoma
HS 578T breast = test system: HS 578T breast
A498 renal = test system: A498 renal
NCI-H460 lung = test system: NCI-H460 lung
HT29 colon = test system: HT29 colon
BT-549 breast = test system: BT-549 breast
NCI-H522 lung = test system: NCI-H522 lung
NCI/ADR-RES ovarian = test system: NCI/ADR-RES ovarian
SNB-19 CNS = test system: SNB-19 CNS
MDA-MB-231 breast = test system: MDA-MB-231 breast
OVCAR-5 ovarian = test system: OVCAR-5 ovarian
MDA-MB-435 = test system: MDA-MB-435
OVCAR-8 ovarian = test system: OVCAR-8 ovarian

COc1ccccc1/C=C/c1cccc(NC(=S)NCCCCN(C)C)c1
GI50 (MALME-3M melanoma): 15.8 µM
TGI (MALME-3M melanoma): 29.8 µM
GI50 (TK-10 renal): 17.3 µM
TGI (TK-10 renal): 32.3 µM
GI50 (SNB-75 CNS): 12.1 µM
TGI (SNB-75 CNS): 27.2 µM
GI50 (IGROV1 ovarian): 17 µM
TGI (IGROV1 ovarian): 32.3 µM
GI50 (SF-295 CNS): 12.5 µM
TGI (SF-295 CNS): 26.1 µM
GI50 (MDA-MB-468 breast): 10.1 µM
TGI (MDA-MB-468 breast): 22.6 µM
GI50 (A549 NSCLC): 16.3 µM
TGI (A549 NSCLC): 34.4 µM
GI50 (U251 CNS): 17.6 µM
TGI (U251 CNS): 33.3 µM
GI50 (MCF7 breast): 10.4 µM
TGI (MCF7 breast): 24.2 µM
GI50 (HCT-15 colon): 8.09 µM
TGI (HCT-15 colon): 21.6 µM
GI50 (SK-MEL-5 melanoma): 14 µM
TGI (SK-MEL-5 melanoma): 26.9 µM
GI50 (M14 melanoma): 12.1 µM
TGI (M14 melanoma): 26.5 µM
GI50 (SF-268 CNS): 15.3 µM
TGI (SF-268 CNS): 34.5 µM
GI50 (OVCAR-4 ovarian): 14.9 µM
TGI (OVCAR-4 ovarian): 29.6 µM
GI50 (K-562 leukemia): 3.07 µM
TGI (K-562 leukemia): 13.3 µM
GI50 (LOX IMVI melanoma): 11.7 µM
TGI (LOX IMVI melanoma): 25 µM
GI50 (MOLT-4 leukemia): 13.3 µM
TGI (MOLT-4 leukemia): 32.2 µM
GI50 (RXF 393 renal): 11.8 µM
TGI (RXF 393 renal): 26.2 µM
GI50 (CCRF-CEM leukemia): 12 µM
TGI (CCRF-CEM leukemia): 29.5 µM
GI50 (EKVX NSCLC): 14.9 µM
TGI (EKVX NSCLC): 31.3 µM
GI50 (UACC-257 melanoma): 16.3 µM
TGI (UACC-257 melanoma): 31.7 µM
GI50 (SK-MEL-28 melanoma): 15.9 µM
TGI (SK-MEL-28 melanoma): 29.5 µM
GI50 (OVCAR-3 ovarian): 10.7 µM
TGI (OVCAR-3 ovarian): 26 µM
GI50 (HCT-116 colon): 11.8 µM
TGI (HCT-116 colon): 28.6 µM
GI50 (KM12 colon): 16.1 µM
TGI (KM12 colon): 32.1 µM
GI50 (SF-539 CNS): 13.4 µM
TGI (SF-539 CNS): 26.2 µM
GI50 (HL-60(TB) leukemia): 12.4 µM
TGI (HL-60(TB) leukemia): 29.7 µM
GI50 (NCI-H226 lung): 10.2 µM
TGI (NCI-H226 lung): 27.4 µM
GI50 (RPMI-8226 leukemia): 17.2 µM
TGI (RPMI-8226 leukemia): 51.8 µM
GI50 (ACHN renal): 15.7 µM
TGI (ACHN renal): 29.1 µM
GI50 (HOP-92 NSCLC): 10.1 µM
TGI (HOP-92 NSCLC): 25.9 µM
GI50 (HCC-2998 colon): 13.2 µM
TGI (HCC-2998 colon): 27.2 µM
GI50 (DU-145 prostate): 15.9 µM
TGI (DU-145 prostate): 32.5 µM
GI50 (SW-620 colon): 14.5 µM
TGI (SW-620 colon): 31.7 µM
GI50 (UACC-62 melanoma): 15.5 µM
TGI (UACC-62 melanoma): 29.3 µM
GI50 (SR leukemia): 11.7 µM
TGI (SR leukemia): 35.4 µM
GI50 (HOP-62 NSCLC): 16.2 µM
TGI (HOP-62 NSCLC): 32.3 µM
GI50 (NCI-H23 lung): 15.2 µM
TGI (NCI-H23 lung): 30.4 µM
GI50 (CAKI-1 renal): 14.5 µM
TGI (CAKI-1 renal): 27.8 µM
GI50 (UO-31 renal): 13.7 µM
TGI (UO-31 renal): 27.7 µM
GI50 (COLO 205 colon): 13.6 µM
TGI (COLO 205 colon): 29.9 µM
GI50 (SK-OV-3 ovarian): 17 µM
TGI (SK-OV-3 ovarian): 35.1 µM
GI50 (SN12C renal): 15 µM
TGI (SN12C renal): 29 µM
GI50 (PC-3 prostate): 14.2 µM
TGI (PC-3 prostate): 30.5 µM
GI50 (786-0 renal): 15.8 µM
TGI (786-0 renal): 33.4 µM
GI50 (T-47D breast): 11.6 µM
TGI (T-47D breast): 27.3 µM
GI50 (SK-MEL-2 melanoma): 16.1 µM
TGI (SK-MEL-2 melanoma): 31.3 µM
GI50 (HS 578T breast): 18.3 µM
TGI (HS 578T breast): 45.2 µM
GI50 (A498 renal): 16.5 µM
TGI (A498 renal): 30.3 µM
GI50 (NCI-H460 lung): 12.5 µM
TGI (NCI-H460 lung): 27.8 µM
GI50 (HT29 colon): 5.8 µM
TGI (HT29 colon): 20.6 µM
GI50 (BT-549 breast): 17.6 µM
TGI (BT-549 breast): 33.3 µM
GI50 (NCI-H522 lung): 15.2 µM
TGI (NCI-H522 lung): 31.3 µM
GI50 (NCI/ADR-RES ovarian): 14.9 µM
TGI (NCI/ADR-RES ovarian): 37.9 µM
GI50 (SNB-19 CNS): 17.5 µM
TGI (SNB-19 CNS): 34.7 µM
GI50 (MDA-MB-231 breast): 14.1 µM
TGI (MDA-MB-231 breast): 27.8 µM
GI50 (OVCAR-5 ovarian): 15.3 µM
TGI (OVCAR-5 ovarian): 29 µM
GI50 (MDA-MB-435): 3.82 µM
TGI (MDA-MB-435): 15.7 µM
GI50 (OVCAR-8 ovarian): 17 µM
TGI (OVCAR-8 ovarian): 34.5 µM
